Laboratory results from patent US11124785B2, “Rothia subtilisins, S8A family proteases, as therapeutic enzymes for application in gluten intolerance disorders” (TRUSTEES OF BOSTON UNIVERSITY, priority 2016, dated 2021).

B1: subtilisin A: subtilisin A from Bacillus licheniformis (Sigma) (protein, listed as Bacillus licheniformis)
chain: MMRKKSFWLGMLTAFMLVFTMAFSDSASAAQPAKNVEKDYIVGFKSGVKTASVKKDIIKESGGKVDKQFRIINAAKAKLDKEALKEVKNDPDVAYVEEDHVAHALAQTVPYGIPLIKADKVQAQGFKGANVKVAVLDTGIQASHPDLNVVGGASFVAGEAYNTDGNGHGTHVAGTVAALDNTTGVLGVAPSVSLYAVKVLNSSGSGTYSGIVSGIEWATTNGMDVINMSLGGPSGSTAMKQAVDNAYARGVVVVAAAGNSGSSGNTNTIGYPAKYDSVIAVGAVDSNSNRASFSSVGAELEVMAPGAGVYSTYPTSTYATLNGTSMASPHVAGAAALILSKHPNLSASQVRNRLSSTATYLGSSFYYGKGLINVEAAAQ

Legend:
Assay type in all cases: biochemical
Z-LPY-pNA = test: Hydrolysis of paranitroanilide-derivatized substrate Z-LPY-pNA; conditions: five-fold increased enzyme concentrations (5 μg/ml) and longer incubation times
Method: (§1) FIG. 4A and FIG. 4B are representative graphs of the hydrolysis of the substrates: Suc-AAPF-pNA (SEQ ID NO: 4), Z-YPQ-pNA, and Z-LPY-pNA, each at 200 μM, by Rmep and subtilisin A, respectively, each at 1 μg/ml.
FIG. 4C show a representative graph of the hydrolysis of the substrate, LPY, by Rmep and subtilisin A at 5 μg/ml and extended incubation times.
(§2) Hydrolysis of paranitroanilide-derivatized substrates—Paranitroanilide (pNA)-derivatized tripeptide substrates were chemically synthesized at >90% purity (21st Century Biochemicals, Marlborough, Mass.). The substrates obtained were Z-YPQ-pNA, Z-QQP-pNA, Z-LPY-pNA, Z-PFP-pNA, Z-PPF-pNA, where Z=benzyloxycarbonyl, Y=tyrosine, P=proline, Q=glutamine, L=leucine, and F=phenylalanine Suc-AAPF-pNA (SEQ ID NO: 4) was obtained from Sigma, where Suc=N-succinyl and A=alanine. The peptides were dissolved in 75-100% DMSO at 10 mM, and were used at a final concentration of 200 μM in 50 mM TrisHCl pH 8.0. Purified Rothia enzyme or subtilisin A from Bacillus licheniformis (Sigma) were tested at final concentrations of 1 μg/ml. […] Substrate hydrolysis was monitored for 10 h at 405 nm using a Genios microtiter plate reader (Tecan, Männedorf, Switzerland) in the kinetic mode at 37° C.

[1] = test system: R5 epitopes (QQPFP and related pentapeptides) in mixed gliadins; test: R5 ELISA, gluten epitope elimination in gliadin digests; conditions: gliadins 250 μg/ml, enzyme 57 μg/ml
Method: FIG. 8E and FIG. 8F show the assessment of the survival of epitopes in the gliadin-NattoK degradation mixture employing the R5 ELISA (FIG. 8E) or G12 ELISA (FIG. 8F) assays. Epitope abolishment in Mixed gliadins (250 μg/ml) were incubated with NattoK (57 μg/ml) for 0, 15, 30 and 120 min and then assayed by the R5 ELISA or G12 ELISA.
R5 and G12 ELISA assays—Gluten epitope elimination in the gliadin-Rmep and gliadin-subtilisin A digests was assessed using two sandwich ELISA assays employing the R5 monoclonal antibody (RIDASCREEN Gliadin, R-Biopharm, Darmstadt, Germany) or the G12 monoclonal antibody (AgraQuant® ELISA Gluten G12, Romer labs, Union, Mo.). To prevent high background values, the R5 plate wells were blocked with 1% skim milk in PBS prior to incubation with the samples. The assays were performed according to the manufacturers' instructions and as described (21, 24).
To further investigate this, the time courses of degradation of mixed gliadins and the highly immunogenic 33-mer α-gliadin peptide were determined. Furthermore, epitope elimination was monitored by two ELISA assays employing the R5 antibody recognizing QQPFP (SEQ ID NO: 40) and related pentapeptides (27, 28) and the G12 antibody recognizing QPQLPY (SEQ ID NO: 22) contained in the 33-mer peptide (29, 30). Data obtained with Rmep are shown in FIG. 5, and with subtilisin A in FIG. 6.

[2] = test system: α-gliadin derived 33-mer peptide; test: Degradation of the 33-mer peptide (RP-HPLC); conditions: 33-mer 250 μg/ml, enzyme 57 μg/ml
Method: FIG. 8D is a representative chromatogram of the RP-HPLC analysis of the degradation of the gliadin-derived 33-mer (250 μg/ml) incubated for 0, 15, 30 and 120 min with NattoK 57 μg/ml).
Degradation of mixed gliadins and the 33-mer peptide—Mixed gliadins were obtained from Sigma. A synthetic highly immunogenic α-gliadin derived 33-mer peptide (26) was synthesized at a purity of >90% (21st Century Biochemicals). Mixed gliadins or the 33-mer peptide (each at final concentration 250 μg/ml) were incubated with Rmep or subtilisin A (each at 57 μg/ml) in 50 mM TrisHCl, pH 8.0. After t=0, 15 min, 30 min, and 2 h, 100 μl sample aliquots were removed and boiled. Gliadin degradation was assessed by 4-12% SDS-PAGE followed by Coomassie staining, and 33-mer degradation was determined by RP-HPLC.
Reversed-phase high performance liquid chromatography (RP-HPLC)—Separation of the 33-mer peptide and its fragments was achieved by RP-HPLC, using buffer A (0.1% trifluoroacetic acid) and buffer B (0.1% trifluoroacetic acid in 80% acetonitrile) at a gradient of 0-55% buffer B over 75 min time interval. The equipment used was an HPLC Model 715 (Gilson, Middleton, Wis.) and a C-18 column (TSK-GEL […], ODS-120T, TOSOHaas, Montgomeryville, Pa.) (22, 25).

Z-YPQ-pNA = test: Hydrolysis of paranitroanilide-derivatized substrate Z-YPQ-pNA; conditions: substrate 200 μM, enzyme 1 μg/ml, pH 8.0; second most rapid after Suc-AAPF-pNA
Method: as §1
as §2, with “μg/ml. Some experiments were conducted in the presence of inhibitors 4-(2-Aminoethyl) benzenesulfonyl fluoride (AEBSF), Aprotinin, E-64, EDTA, phenylmethanesulfonyl fluoride (PMSF) and Eglin C, which were tested at final concentrations of 10 mM, 0.08 mM, 0.1 mM, 1.5 mM, 1 mM, and 0.06-1.2 μM, respectively.” for “μg/ml.”

Z-QQP-pNA = test: Hydrolysis of paranitroanilide-derivatized substrate Z-QQP-pNA; conditions: substrate 200 μM, pH 8.0 (data not shown)
Method: (§3) Hydrolysis of paranitroanilide-derivatized substrates—Paranitroanilide (pNA)-derivatized tripeptide substrates were chemically synthesized at >90% purity (21st Century Biochemicals, Marlborough, Mass.). The substrates obtained were Z-YPQ-pNA, Z-QQP-pNA, Z-LPY-pNA, Z-PFP-pNA, Z-PPF-pNA, where Z=benzyloxycarbonyl, Y=tyrosine, P=proline, Q=glutamine, L=leucine, and F=phenylalanine Suc-AAPF-pNA (SEQ ID NO: 4) was obtained from Sigma, where Suc=N-succinyl and A=alanine. The peptides were dissolved in 75-100% DMSO at 10 mM, and were used at a final concentration of 200 μM in 50 mM TrisHCl pH 8.0. Purified Rothia enzyme or subtilisin A from Bacillus licheniformis (Sigma) were tested at final concentrations of 1 μg/ml. Some experiments were conducted in the presence of inhibitors 4-(2-Aminoethyl) benzenesulfonyl fluoride (AEBSF), Aprotinin, E-64, EDTA, phenylmethanesulfonyl fluoride (PMSF) and Eglin C, which were tested at final concentrations of 10 mM, 0.08 mM, 0.1 mM, 1.5 mM, 1 mM, and 0.06-1.2 μM, respectively. Enzymes were preincubated with the inhibitors for 20 min before adding Suc-AAPF-pNA (SEQ ID NO: 4). Substrate hydrolysis was monitored for 10 h at 405 nm using a Genios microtiter plate reader (Tecan, Männedorf, Switzerland) in the kinetic mode at 37° C.

Suc-AAPF-pNA = test: Hydrolysis of paranitroanilide-derivatized substrate Suc-AAPF-pNA; conditions: substrate 200 μM; enzyme 1 μg/ml (NattoK: dilution series); 50 mM TrisHCl pH 8.0, 37° C.
Method: as §1
FIG. 8C show a representative graph of the hydrolysis of the substrate, Suc-AAPF-pNA (SEQ ID NO: 4), with a dilution series of NattoK. Suc-AAPF-pNA (SEQ ID NO: 4) was incubated […]. Hydrolysis was measured at 405 nm.
as §3

Molecule	hydrolysis of Z-LPY-pNA (Z-LPY-pNA)	R5 epitopes eliminated after 15 min ([1]; 15 min)	R5 epitope elimination (reduction in antibody binding) at t=0 [1] [%]	incubation time within which 33-mer peptide degradation was completed ([2]; pH 8.0) [min]	hydrolysis of Z-YPQ-pNA (Z-YPQ-pNA)	hydrolysis of Z-QQP-pNA (Z-QQP-pNA)	hydrolysis of Suc-AAPF-pNA (Suc-AAPF-pNA)	R5 epitope elimination within 15 min of incubation ([1]; 15 min) [%]	33-mer peptide degradation after 2 h of incubation ([2]; 2 h) [%]
Rmep: DEAE pooled fraction F2 of R. mucilaginosa ATCC 25296 extract with highest gluten-degrading enzyme activity; contains subtilisins C6R5V9_9MICC and C6R5W1_9MICC	could be demonstrated	virtually all	46	≤ 30	cleaved	not hydrolyzed	cleaved most rapidly	–	–
B1	could be demonstrated	–	90	–	cleaved	not hydrolyzed	cleaved most rapidly	100	74
